The values that follow come from patent US10550102B2, “Indane and indoline derivatives and the use thereof as soluble guanylate cyclase activators” (NOVARTIS AG, priority 2014, dated 2020).

The structures appear in SMILES notation.

Sequence of soluble guanylate cyclase (human GUCYA3 and GUCYB3) overexpressed in CHO cells (Q02108 whole entry partner): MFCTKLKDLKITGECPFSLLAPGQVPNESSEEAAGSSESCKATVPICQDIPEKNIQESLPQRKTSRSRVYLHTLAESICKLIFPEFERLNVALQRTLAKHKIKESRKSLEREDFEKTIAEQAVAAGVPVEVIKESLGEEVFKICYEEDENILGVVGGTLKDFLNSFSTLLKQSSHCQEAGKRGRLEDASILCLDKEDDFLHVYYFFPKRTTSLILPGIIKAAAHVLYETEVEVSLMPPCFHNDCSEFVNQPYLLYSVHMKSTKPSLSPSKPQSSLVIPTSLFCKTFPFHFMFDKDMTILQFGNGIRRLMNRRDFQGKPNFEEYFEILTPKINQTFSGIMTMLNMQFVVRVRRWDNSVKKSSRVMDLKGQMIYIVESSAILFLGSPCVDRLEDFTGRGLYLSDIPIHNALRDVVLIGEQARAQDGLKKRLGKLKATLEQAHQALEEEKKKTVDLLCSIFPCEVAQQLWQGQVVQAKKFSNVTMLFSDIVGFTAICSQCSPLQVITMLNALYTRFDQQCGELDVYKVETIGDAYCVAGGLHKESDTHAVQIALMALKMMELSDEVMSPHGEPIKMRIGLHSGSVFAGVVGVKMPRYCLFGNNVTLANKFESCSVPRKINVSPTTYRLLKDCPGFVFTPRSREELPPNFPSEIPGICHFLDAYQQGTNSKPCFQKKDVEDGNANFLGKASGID
Sequence of soluble guanylate cyclase (human GUCYA3 and GUCYB3) overexpressed in CHO cells (Q02153 whole entry): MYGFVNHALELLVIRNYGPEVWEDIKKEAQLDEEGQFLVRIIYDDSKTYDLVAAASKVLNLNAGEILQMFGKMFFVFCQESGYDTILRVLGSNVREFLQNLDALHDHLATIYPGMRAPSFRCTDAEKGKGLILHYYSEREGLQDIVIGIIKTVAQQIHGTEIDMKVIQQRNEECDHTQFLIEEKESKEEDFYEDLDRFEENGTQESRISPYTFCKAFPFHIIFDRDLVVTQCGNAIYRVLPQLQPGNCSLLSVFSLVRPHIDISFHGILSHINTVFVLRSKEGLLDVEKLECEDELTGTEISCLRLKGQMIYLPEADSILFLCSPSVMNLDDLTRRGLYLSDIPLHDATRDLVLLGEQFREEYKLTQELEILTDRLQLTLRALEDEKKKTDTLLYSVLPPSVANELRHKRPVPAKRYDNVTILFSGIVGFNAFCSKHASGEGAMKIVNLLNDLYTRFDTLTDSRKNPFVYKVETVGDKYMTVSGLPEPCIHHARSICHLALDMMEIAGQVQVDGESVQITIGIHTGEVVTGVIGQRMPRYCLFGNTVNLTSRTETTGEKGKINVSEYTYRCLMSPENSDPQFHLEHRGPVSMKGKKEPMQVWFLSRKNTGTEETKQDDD

The test addresses soluble guanylate cyclase (human GUCYA3 and GUCYB3) overexpressed in CHO cells (Homo sapiens (Human), UniProt Q02108+Q02153). The test is described as follows: CHO cellular assay (cGMP production, Cisbio cGMP HTRF kit). In kind it is cell-based. Particulars: CHO GUCY clone 8E10, cGMP production, assay buffer with 1 mM IBMX and 20 uM ODQ, 1 h room temperature; minimum quantification limit 0.5 nM (listed 0.5 nM means ≤0.5 nM); read-out: EC50. An outline of the steps:
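EC50 was derived by 4-parameter sigmoidal fit of cGMP levels, read by HTRF against a standard curve. Compounds were applied for 1 h at room temperature, in buffer with 20 uM ODQ, 1 mM IBMX and 0.1% BSA (0.5% DMSO final). The cells were a stable CHO-K1 line (clone 8E10) overexpressing human GUCYA3 and GUCYB3, seeded at 3000/well.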
As to `Cc1cc(C2CCN(C(=O)C3CC3)CC2)ccc1CC1CCc2cccc(-c3cccc(-n4ncc(C(=O)O)c4C)c3)c21` (single isomer, unassigned; (-)) [54. b). (−), (−)-1-(3-(3-(4-(1-(cyclopropanecarbonyl)piperidin-4-yl)-2-methylbenzyl)-2,3-dihydro-1H-inden-4-yl)phenyl)-5-methyl-1H-pyrazole-4-carboxylic acid], the 50% effective concentration (EC50) – broadly, the concentration giving half of the maximal effect – worked out at 0.168 µM.
As for `CCc1cc(CC2CCc3cccc(-c4cccc(-n5ncc(C(=O)O)c5C)c4)c32)ccc1C1CCN(C(=O)C2CC2)CC1` (single isomer, unassigned; (-)) [55-1 (−), (−)-1-(3-(3-(4-(1-(cyclopropanecarbonyl)piperidin-4-yl)-3-ethylbenzyl)-2,3-dihydro-1H-inden-4-yl)phenyl)-5-methyl-1H-pyrazole-4-carboxylic acid], the EC50 was found to be 0.015 µM.
`Cc1nnc(N2CCC(c3ccc(NC4CCc5cccc(-c6cccc(-n7ncc(C(=O)O)c7C)n6)c54)c(C)c3)CC2)o1` (single isomer, unassigned; (-)) [58. b). (−), (−)-5-methyl-1-(6-(3-((2-methyl-4-(1-(5-methyl-1,3,4-oxadiazol-2-yl)piperidin-4-yl)phenyl)amino)-2,3-dihydro-1H-inden-4-yl)pyridin-2-yl)-1H-pyrazole-4-carboxylic acid]: the EC50 was 0.0032 µM.
The value for `CCc1c(C(=O)O)cnn1-c1cccc(-c2cccc3c2N(Cc2ccc(C4CCN(C(=O)C5CC5)CC4)cc2C)CC3C)n1` (single isomer, unassigned; (-)) [(−)-20-2, (−)-1-(6-(1-(4-(1-(Cyclopropanecarbonyl)piperidin-4-yl)-2-methylbenzyl)-3-methylindolin-7-yl)pyridin-2-yl)-5-ethyl-1H-pyrazole-4-carboxylic acid] was 0.001 µM.
The value for `CCc1cc(NC2COc3cccc(-c4cccc(-n5ncc(C(=O)O)c5C(F)(F)F)n4)c32)ccc1C1CCN(C(=O)C2CC2)CC1` (single isomer, unassigned; (-)) [(−)-36-1, (−)-1-(6-(3-((4-(1-(Cyclopropanecarbonyl)piperidin-4-yl)-3-ethylphenyl)amino)-2,3-dihydrobenzofuran-4-yl)pyridin-2-yl)-5-(trifluoromethyl)-1H-pyrazole-4-carboxylic acid] was 0.02 µM; that for `CCc1cc(NC2COc3cccc(-c4cccc(-n5ncc(C(=O)O)c5CC)n4)c32)ccc1C1CCN(C(=O)C2CC2)CC1` (single isomer, unassigned; (-)) [(−)-36-2, (−)-1-(6-(3-((4-(1-(Cyclopropanecarbonyl)piperidin-4-yl)-3-ethylphenyl)amino)-2,3-dihydrobenzofuran-4-yl)pyridin-2-yl)-5-ethyl-1H-pyrazole-4-carboxylic acid] was 0.001 µM; that for `Cc1cc(C2CCN(C(=O)C(C)C)CC2)ccc1NC1CCc2cccc(-c3cccc(-n4ncc(C(=O)O)c4C)n3)c21` (single isomer, unassigned; (-)) [(−)-46-1, (−)-1-(6-(3-((4-(1-isobutyrylpiperidin-4-yl)-2-methylphenyl)amino)-2,3-dihydro-1H-inden-4-yl)pyridin-2-yl)-5-methyl-1H-pyrazole-4-carboxylic acid] was 0.1 µM.
Then `CCC(=O)N1CCC(c2ccc(NC3CCc4cccc(-c5cccc(-n6ncc(C(=O)O)c6C)n5)c43)c(C)c2)CC1` (single isomer, unassigned; (-)) [(−)-46-2], with 0.16 µM; and `Cc1cc(C2CCN(C(=O)CC3CC3)CC2)ccc1NC1CCc2cccc(-c3cccc(-n4ncc(C(=O)O)c4C)n3)c21` (single isomer, unassigned; (-)) [(−)-46-3, (−)-1-(6-(3-((4-(1-(2-Cyclopropylacetyl)piperidin-4-yl)-2-methylphenyl)amino)-2,3-dihydro-1H-inden-4-yl)pyridin-2-yl)-5-methyl-1H-pyrazole-4-carboylic acid], with 0.303 µM.
Turning to `Cc1cc(C2CCN(C(=O)CC3CC3)CC2)c(F)cc1NC1CCc2cccc(-c3cccc(-n4ncc(C(=O)O)c4C)n3)c21` (single isomer, unassigned; (-)) [(−)-46-5, (−)-1-(6-(3-((4-(1-(2-Cyclopropylacetyl)piperidin-4-yl)-5-fluoro-2-methylphenyl)amino)-2,3-dihydro-1H-inden-4-yl)pyridin-2-yl)-5-methyl-1H-pyrazole-4-carboxylic acid], the EC50 was 0.681 µM.
On to `CCOC(=O)N1CCC(c2ccc(NC3CCc4cccc(-c5cccc(-n6ncc(C(=O)O)c6CC)n5)c43)cc2CC)CC1` (single isomer, unassigned; (-)) [(−)-52-1, (−)-1-(6-(3-((4-(1-(Ethoxycarbonyl)piperidin-4-yl)-3-ethylphenyl)amino)-2,3-dihydro-1H-inden-4-yl)pyridin-2-yl)-5-ethyl-1H-pyrazole-4-carboxylic acid], for which the EC50 was found to be 0.019 µM.
The value for `CCc1cc(NC2CCc3cccc(-c4cccc(-n5ncc(C(=O)O)c5CC)n4)c32)ccc1C1CCN(C(=O)OC)CC1` (single isomer, unassigned; (-)) [(−)-52-2, (−)-5-Ethyl-1-(6-(3-((3-ethyl-4-(1-(methoxycarbonyl)piperidin-4-yl)phenyl)amino)-2,3-dihydro-1H-inden-4-yl)pyridin-2-yl)-1H-pyrazole-4-carboxylic acid] was 0.001 µM; that for `C=CCOC(=O)N1CCC(c2ccc(NC3CCc4cccc(-c5cccc(-n6ncc(C(=O)O)c6CC)n5)c43)cc2CC)CC1` (single isomer, unassigned; (-)) [(−)-52-3, (−)-1-(6-(3-((4-(1-((Allyloxy)carbonyl)piperidin-4-yl)-3-ethylphenyl)amino)-2,3-dihydro-1H-inden-4-yl)pyridin-2-yl)-5-ethyl-1H-pyrazole-4-carboxylic acid] was 0.003 µM; that for `CCc1cc(NC2CCc3cccc(-c4cccc(-n5ncc(C(=O)O)c5CC)n4)c32)ccc1C1CCN(C(=O)C2CC2)CC1` (single isomer, unassigned; (-)) [(−)-53-1, (−)-1-(6-(3-((4-(1-(cyclopropanecarbonyl)piperidin-4-yl)-3-ethylphenyl)amino)-2,3-dihydro-1H-inden-4-yl)pyridin-2-yl)-5-ethyl-1H-pyrazole-4-carboxylic acid] was 0.021 µM.
The value for `Cc1cc(C2CCN(C(=O)CC3CC3)CC2)cc(F)c1NC1CCc2cccc(-c3cccc(-n4ncc(C(=O)O)c4C)n3)c21` (single isomer, unassigned; (-)) [(−)-53-3, (−)-1-(6(3-((4-(1-(2-cyclopropylacetyl)piperidin-4-yl)-2-fluoro-6-methylphenyl)amino)-2,3-dihydro-1H-inden-4-yl)pyridin-2-yl)-5-methyl-1H-pyrazole-4-carboxylic acid] was 0.059 µM; that for `Cc1cc(C2CCN(C(=O)C3CC3)CC2)ccc1NC1CCc2cccc(-c3cccc(-n4ncc(C(=O)O)c4C(F)F)n3)c21` (single isomer, unassigned; (-)) [(−)-53-4, (−)-1-(6-(3-((4-(1-(cyclopropanecarbonyl)piperidin-4-yl)-2-methylphenyl)amino)-2,3-dihydro-1H-inden-4-yl)pyridin-2-yl)-5-(difluoromethyl)-1H-pyrazole-4-carboxylic acid] was 0.024 µM; that for `Cc1cc(C2CCN(C(=O)C3CC3)CC2)ccc1NC1CCc2cccc(-c3cccc(-n4ncc(C(=O)O)c4C(F)(F)F)c3)c21` (single isomer, unassigned; (-)) [Example 6. b). (−), (−)-1-(3-(3-((4-(1-(cyclopropanecarbonyl)piperidin-4-yl)-2-methylphenyl)amino)-2,3-dihydro-1H-inden-4-yl)phenyl)-5-(trifluoromethyl)-1H-pyrazole-4-carboxylic acid] was 0.024 µM.
Then `Cc1cc(C2CCN(C(=O)C3CC3)CC2)ccc1NC1CCc2cccc(-c3cccc(-n4ncc(C(=O)O)c4C)n3)c21` (single isomer, unassigned; (-)) [Example 7b, (−)-1-(6-(3-((4-(1-(Cyclopropanecarbonyl)piperidin-4-yl)-2-methylphenyl)amino)-2,3-dihydro-1H-inden-4-yl)pyridin-2-yl)-5-methyl-1H-pyrazole-4-carboxylic Acid], with 0.0024 µM.
As to `Cc1c(C(=O)O)cnn1-c1cccc(-c2cccc3c2C(Nc2ccc(C4CCN(C(=O)C5CC5)CC4)cc2)CC3)n1` (single isomer, unassigned; (-)) [Example 9. b). (−), (−)-1-(6-(3-((4-(1-(cyclopropanecarbonyl)piperidin-4-yl)phenyl)amino)-2,3-dihydro-1H-inden-4-yl)pyridin-2-yl)-5-methyl-1H-pyrazole-4-carboxylic acid], the EC50 was 0.184 µM.
Then `CCc1c(C(=O)O)cnn1-c1cccc(-c2cccc3c2C(Nc2ccc(C4CCN(C(=O)C5CC5)CC4)cc2C)CC3)n1` (single isomer, unassigned; (-)) [Example 10b, (−)-1-(6-(3-((4-(1-(Cyclopropanecarbonyl)piperidin-4-yl)-2-methylphenyl)amino)-2,3-dihydro-1H-inden-4-yl)pyridin-2-yl)-5-ethyl-1H-pyrazole-4-carboxylic Acid], with 0.049 µM.
With `Cc1cc(C2CCN(C(=O)C3CC3)CC2)ccc1NC1COc2cccc(-c3cccc(-n4ncc(C(=O)O)c4C)n3)c21` (single isomer, unassigned; (-)) [Example 34b], the EC50 was determined as 0.0039 µM.
Consider `Cc1cc(C2CCN(C(=O)[C@H](C)O)CC2)ccc1NC1COc2cccc(-c3cccc(-n4ncc(C(=O)O)c4C)n3)c21` (single isomer, unassigned; (-)) [Example 35b], for which the EC50 came out at 0.017 µM.
`Cc1cc(C2CCN(C(=O)C3CC3)CC2)ccc1CC1CCc2cccc(-c3cccc(-n4ncc(C(=O)O)c4C)n3)c21` (single isomer, unassigned; (-)) [Example 37. b). (−), (−)-1-(6-(3-(4-(1-(cyclopropanecarbonyl)piperidin-4-yl)-2-methylbenzyl)-2,3-dihydro-1H-inden-4-yl)pyridin-2-yl)-5-methyl-1H-pyrazole-4-carboxylic Acid]: the EC50 stood at 0.0063 µM.
